One may read the Ki as the equilibrium dissociation constant of an inhibitor or competing ligand from its target. Read a high Ki as a looser hold on the target.

For assay [1], the system named is muscarinic receptors. The assay can be described thus: Muscarinic binding: displacement of [3H]N-methylscopolamine, rat frontal cortical membranes. The following applies: 10^−6 M test compound, single determination, [3H]N-methylscopolamine. The method, then:
Frontal cortical tissue from the brains of male Charles River rats weighing 150-250 g was homogenised in ice-cold 20 mM HEPES buffer, pH 7.5 (measured at 25° C.) containing 100 mM sodium chloride and 10 mM magnesium chloride (1:10 w/v) using a Polytron PT3100 (speed setting 21,700 rpm, 3×5 seconds) and centrifuged at 49,500 g for 30 minutes at 4° C. The supernatant was discarded and the pellet rehomogenised in 20 mM HEPES buffer, pH 7.5 containing 100 mM sodium chloride and 10 mM magnesium chloride (equivalent to 12.5 mg wet weight of tissue/ml). Membranes were stored at −80° C. until required.
Membranes were thawed, diluted 1:10 in ice-cold 20 mM HEPES buffer, pH 7.5 containing 100 mM sodium chloride and 10 mM magnesium chloride and homogenised using a Polytron PT3100 as above. Diluted membranes (200 μl; equivalent to 0.25 mg wet weight of tissue/tube) were incubated with 200 μl of 20 mM HEPES buffer, pH 7.5 containing 100 mM sodium chloride and 10 mM magnesium chloride and 50 μl [^3H]N-methylscopolamine at a single concentration of 0.15 nM and 50 μl distilled water (total binding) or 50 μl test compound (at a single concentration of 10^−6 M or at 10 concentrations ranging from 10^−11-10^−3 M) or 50 μl atropine sulphate (1 μM; non-specific binding) for 30 min at 30° C. Membrane bound radioactivity was recovered by filtration under vacuum through Skatron 11734 filters using a Skatron cell harvester. Filters were rapidly washed with ice-cold 20 mM HEPES buffer, pH 7.5 (wash 1,2 at setting 5,5). The scored filter paper discs were punched out into vials, scintillation fluid added and radioactivity determined by liquid scintillation counting.
(§1) For each of these tests measuring the ability of compounds of Formula I to displace standard ligands from 5-HT1A receptors and 5-hydroxytryptamine (5-HT) and noradrenaline (NA) reuptake sites and muscarinic receptors in vitro, the percentage displacement of specific binding of tritiated ligand by 10^−6 M test compound was calculated in the following way.
(§2) Firstly, specific binding of tritiated ligand in the absence (A) and presence (B) of test compound was determined:
(§3) In the absence of compound: A(dpm)=Total binding (dpm)−Non-specific binding (dpm) In the presence of compound (10^−6 M): B(dpm)=Binding at 10^−6M (dpm)−Non-specific binding (dpm)
(§4) The specific binding of tritiated ligand in the presence (B) of compound was then converted to a percentage of specific binding of tritiated ligand in the absence (A) of compound: % Specific binding at 10^−6 M=B(dpm)/A(dpm)×100
(§5) The percentage displacement of specific binding of tritiated ligand by the test compound (10^−6 M) was then obtained by subtraction of the percentage specific binding in the presence of compound from the percentage specific binding in the absence of compound, which is taken as the maximum binding and so equals 100%:
(§6) % Displacement at 10^−6 M=100−% Specific binding at 10^−6 M.
In some cases, displacement curves were then produced for compounds which displaced ≧50% of specific binding of the tritiated ligand at 10^−6 M using a range of concentrations of the compound. The Ki was then calculated by simultaneous fitting using equations derived from the Feldman equations by robust non-linear regression to data from three experiments simultaneously (De Lean et al., 1978; Munson and Rodbard, 1980; Feldman, 1992). Munson P J and Rodbard D. Ligand: a versatile computerised approach for characterisation of ligand binding systems. Anal Biochem 1980; 107: 220. Feldman HA. Mathematical theory of complex ligand binding systems at equilibrium: some methods for parameter fitting. Anal Biochem 1992: 48, 317. De Lean A, Munson P J and Rodbard D. Simultaneous analysis of families of sigmoidal curves: application to bioassay, radioligand assay, and physiological dose-response curves. Am J Physiol 1978: 235 (2), E97-E102. […]
For orientation: Displacement assays read how much labelled ligand stays bound in the presence of the test substance.

In assay [2] the target is T1, 5-HT reuptake sites (Rattus norvegicus, UniProt P31652).
T1 construct: Frontal cortical tissue from the brains of male Charles River rats; from tissue; host or cells: rat frontal cortical membranes
Briefly: 5-HT uptake: displacement of [3H]citalopram from 5-HT reuptake sites, rat frontal cortical membranes. The following applies: [3H]citalopram 1.3 nM, rat frontal cortical membranes; fit to data from three experiments. In kind it is binding. Here is the method: Frontal cortical tissue from the brains of male Charles River rats weighing 150-250 g was homogenised in ice-cold 50 mM Tris-HCl, pH 7.4 (when measured at 25° C.) containing 120 mM sodium chloride and 5 mM potassium chloride (Tris buffer; 1:30 w/v) and centrifuged at 40,000 g for 10 minutes. The supernatant was discarded and the pellet rehomogenised in Tris buffer, 1:60 w/v, and centrifuged at 40,000 g for 10 minutes. This step was repeated a further time. The final pellet was resuspended in 50 mM Tris-HCl, pH 7.4 containing 120 mM sodium chloride and 5 mM potassium chloride (equivalent to 3.125 mg wet weight of tissue/ml) and used immediately in the binding assay. All centrifugations were performed at 4° C.
Membranes (400 μl; equivalent to 1.25 mg wet weight of tissue/tube) were incubated with 50 μl [^3H]citalopram at a single concentration of 1.3 nM and 50 μl of distilled water (total binding) or 50 μl of test compound (at a single concentration of 10^−6 M or at 10 concentrations ranging from 10^−11-10^−3 M) or 50 μl of paroxetine (0.5 μM; non-specific binding) for 1 h at 27° C. Membrane bound radioactivity was recovered by filtration under vacuum through Skatron 11734 filters presoaked in 0.5% PEI using a Skatron Cell Harvester. Filters were then washed in ice-cold 50 mM Tris-HCl buffer, pH 7.4 (at 25° C., wash setting 9,9,0). The scored filter paper discs were punched out into vials, scintillation fluid added and radioactivity determined by liquid scintillation counting.
as §1, §2, §3, §4, §5, §6
In some cases, displacement curves were then produced for compounds which displaced ≧50% of specific binding of the tritiated ligand at 10^−6 M using a range of concentrations of the compound. The Ki was then calculated by simultaneous fitting using equations derived from the Feldman equations by robust non-linear regression to data from three experiments simultaneously (De Lean et al., 1978; Munson and Rodbard, 1980; Feldman, 1992). Munson P J and Rodbard D. Ligand: a versatile computerised approach for characterisation of ligand binding systems. Anal Biochem 1980; 107: 220. Feldman HA. Mathematical theory of complex ligand binding systems at equilibrium: some methods for parameter fitting. Anal Biochem 1992: 48, 317. De Lean A, Munson P J and Rodbard D. Simultaneous analysis of families of sigmoidal curves: application to bioassay, radioligand assay, and physiological dose-response curves. Am J Physiol 1978: 235 (2), E97-E102.
The results obtained in the above tests for 5-HT1A binding and 5-HT and NA uptake and muscarinic binding for the final products of Examples 1-39 hereinafter are given in Table 1 below. Kis are in nM. % Figures are for % displacement at 10^−6 M for a single determination.

T1 sequence (P31652 whole entry): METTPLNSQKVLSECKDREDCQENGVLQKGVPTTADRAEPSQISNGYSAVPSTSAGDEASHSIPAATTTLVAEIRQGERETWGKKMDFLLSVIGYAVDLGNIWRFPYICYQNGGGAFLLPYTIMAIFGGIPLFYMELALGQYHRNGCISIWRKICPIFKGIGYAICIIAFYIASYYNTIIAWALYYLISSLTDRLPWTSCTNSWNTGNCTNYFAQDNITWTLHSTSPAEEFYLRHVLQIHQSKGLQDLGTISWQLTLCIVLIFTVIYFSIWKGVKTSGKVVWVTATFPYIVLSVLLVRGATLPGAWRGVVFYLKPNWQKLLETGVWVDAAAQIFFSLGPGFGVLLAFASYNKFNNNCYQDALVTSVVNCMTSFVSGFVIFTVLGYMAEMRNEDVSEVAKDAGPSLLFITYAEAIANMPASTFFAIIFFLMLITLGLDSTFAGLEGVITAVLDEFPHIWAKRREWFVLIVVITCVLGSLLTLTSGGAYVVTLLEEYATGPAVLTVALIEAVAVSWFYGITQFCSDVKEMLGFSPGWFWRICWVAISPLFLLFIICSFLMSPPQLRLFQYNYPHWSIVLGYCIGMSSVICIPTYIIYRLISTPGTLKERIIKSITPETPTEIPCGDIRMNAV

On to `Br.CC1=C(c2ccc(F)c3sccc23)N2CCN=C2S1` [Example 38, 3-(7-fluorobenzo[b]thiophen-4-yl)-2-methyl-5,6-dihydroimidazo[2,1-b]thiazole hydrobromide], for which, in assay [1], the “Muscarinic % displacement at 10^−6 M” value came to 12%. This compound gave a Ki in assay [2] of 61 nM.

These data come from patent publication US6900216B2, “Dihydroimidazo[2,1-b]thiazole and dihydro-5h-thiazolo[3,2-A]pyrimidines as antidepressant agents” (Knoll GmbH, priority 2000, dated 2005).
